Results published in ChEMBL document CHEMBL1201862, “PubChem BioAssay data set” (2004).
Where a name gives a salt, the structure may show the parent alone. Blank lines part the entries; values can stand above or below the compound they belong to. Calls of active or inactive are those of the source.

Assays:
[1] = target: Induced myeloid leukemia cell differentiation protein Mcl-1 (Homo sapiens, UniProt Q07820); type: functional
[2] = target: T1, Probable nicotinate-nucleotide adenylyltransferase (Staphylococcus aureus (strain N315), UniProt P65502); type: functional, Staphylococcus aureus subsp. aureus N315; conditions: read-out: IC50_Mean;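 on IC50 Mean: confirmatory dose-response retesting of NadD inhibitor hits first found in an ultra-high-throughput screen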
[3] = target: T1, Probable nicotinate-nucleotide adenylyltransferase; type: functional, Staphylococcus aureus subsp. aureus N315
[4] = target: DNA (cytosine-5)-methyltransferase 1 (Homo sapiens, UniProt P26358); assay: DNMT1 methyltransferase inhibitors, confirmation, biochemical, fluorescent molecular beacon (AID 602386); type: functional
[5] = target: T2, Carboxy-terminal domain RNA polymerase II polypeptide A small phosphatase 1 (Homo sapiens, UniProt Q9GZU7); assay: inhibitors of CTDSP1, concentration-response testing, biochemical assay, absorbance-based, actives from ultra-high-throughput screening (AID 540297); type: functional
T2 sequence (Q9GZU7 whole entry): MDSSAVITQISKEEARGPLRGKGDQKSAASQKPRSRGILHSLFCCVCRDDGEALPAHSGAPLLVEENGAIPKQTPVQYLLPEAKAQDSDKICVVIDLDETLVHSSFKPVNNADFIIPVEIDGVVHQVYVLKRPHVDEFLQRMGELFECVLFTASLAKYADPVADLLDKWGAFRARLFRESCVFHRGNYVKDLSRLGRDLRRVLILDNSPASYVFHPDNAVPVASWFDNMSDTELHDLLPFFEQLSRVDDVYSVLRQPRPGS

[6] = target: T3, Mitochondrial peptide methionine sulfoxide reductase (Bos taurus, UniProt P54149); assay: Absorbance-based biochemical high throughput dose response assay for activators of Methionine sulfoxide reductase A (MsrA).; type: functional
T3 sequence (P54149 whole entry): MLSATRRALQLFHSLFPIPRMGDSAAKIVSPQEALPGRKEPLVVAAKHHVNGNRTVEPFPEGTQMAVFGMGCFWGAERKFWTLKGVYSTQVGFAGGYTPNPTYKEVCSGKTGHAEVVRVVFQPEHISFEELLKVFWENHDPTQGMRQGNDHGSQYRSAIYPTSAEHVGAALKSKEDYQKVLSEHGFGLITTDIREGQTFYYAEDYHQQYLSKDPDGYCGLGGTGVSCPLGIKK

[7] = C. albicans growth with fluconazole, confirmation, fluorescence, retest (AID 2467); type: functional, cell-based
[8] = NIH-3T3 fibroblast cytotoxicity, dose response, cytotoxicity control, cell-based, fluorescence, Alamar Blue, secondary assay (AID 2327); type: functional;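 further: NIH-3T3 mouse fibroblasts cultured with fluconazole at 8 µg/mL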
[9] = target: T4, High affinity choline transporter 1 (Homo sapiens, UniProt Q9GZV3); assay: CHT inhibitors, dose response, cell-based, 10-point CRC, membrane potential dye (AID 588401); type: functional;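 further: membrane potential dye fluorescence of choline-evoked depolarization via CHT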
T4 sequence (Q9GZV3 whole entry): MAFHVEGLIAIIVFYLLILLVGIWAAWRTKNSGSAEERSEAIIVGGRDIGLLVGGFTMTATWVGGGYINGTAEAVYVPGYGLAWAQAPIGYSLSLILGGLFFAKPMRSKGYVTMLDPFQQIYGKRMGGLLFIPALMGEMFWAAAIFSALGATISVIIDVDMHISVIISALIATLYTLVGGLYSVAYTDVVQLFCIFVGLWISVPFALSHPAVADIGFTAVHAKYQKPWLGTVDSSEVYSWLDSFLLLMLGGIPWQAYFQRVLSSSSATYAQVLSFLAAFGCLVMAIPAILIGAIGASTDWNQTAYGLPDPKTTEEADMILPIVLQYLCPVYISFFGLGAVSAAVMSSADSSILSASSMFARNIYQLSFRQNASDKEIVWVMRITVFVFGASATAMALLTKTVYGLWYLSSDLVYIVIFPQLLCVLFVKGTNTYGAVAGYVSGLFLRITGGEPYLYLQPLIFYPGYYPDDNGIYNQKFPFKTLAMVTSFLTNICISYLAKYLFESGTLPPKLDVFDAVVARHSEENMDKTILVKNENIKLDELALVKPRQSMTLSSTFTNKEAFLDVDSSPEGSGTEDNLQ

[10] = target: T4, High affinity choline transporter 1; assay: CHT inhibitors, dose response, cell-based, 5-point CRC, membrane potential dye (AID 504840); type: functional
[11] = target: T5, Sentrin-specific protease 1 (Homo sapiens, UniProt Q9P0U3); assay: potency of human SENP1 inhibitors, dose response, biochemical, kinetic FRET (AID 651697); type: functional; conditions: read-out: IC50_Mean
T5 sequence (Q9P0U3 whole entry, the tested form may be a part): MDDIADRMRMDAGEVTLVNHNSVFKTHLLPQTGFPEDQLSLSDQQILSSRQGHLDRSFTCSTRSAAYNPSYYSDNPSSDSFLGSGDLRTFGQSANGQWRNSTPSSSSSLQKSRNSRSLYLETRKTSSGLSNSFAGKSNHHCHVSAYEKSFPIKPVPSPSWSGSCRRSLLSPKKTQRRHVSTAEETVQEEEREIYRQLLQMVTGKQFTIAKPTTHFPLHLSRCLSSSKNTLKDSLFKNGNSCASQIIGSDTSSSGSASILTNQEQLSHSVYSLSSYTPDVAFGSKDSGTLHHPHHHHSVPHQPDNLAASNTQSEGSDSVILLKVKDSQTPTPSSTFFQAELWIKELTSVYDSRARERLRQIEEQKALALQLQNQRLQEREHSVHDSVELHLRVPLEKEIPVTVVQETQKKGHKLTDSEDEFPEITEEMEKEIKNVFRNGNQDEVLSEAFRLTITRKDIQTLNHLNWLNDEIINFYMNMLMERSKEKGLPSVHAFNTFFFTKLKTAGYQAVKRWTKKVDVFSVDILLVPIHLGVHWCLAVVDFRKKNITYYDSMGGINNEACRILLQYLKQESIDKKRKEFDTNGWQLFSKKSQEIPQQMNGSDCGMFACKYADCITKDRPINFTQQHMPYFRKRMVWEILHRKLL

[12] = target: T5, Sentrin-specific protease 1; assay: Dose response confirmation of small molecule inhibitors of the catalytic domain of the SUMO protease, SENP1 in a FRET assay.; type: functional; conditions: read-out: IC50_Mean
[13] = target: T6, Small ubiquitin-related modifier 1 (Homo sapiens, UniProt P63165); assay: inhibitors of SUMO1 peptide binding, dose response, biochemical, fluorescence polarization, uHTS hits (AID 624382); type: functional; conditions: read-out: IC50_Mean
T6 sequence (P63165 whole entry): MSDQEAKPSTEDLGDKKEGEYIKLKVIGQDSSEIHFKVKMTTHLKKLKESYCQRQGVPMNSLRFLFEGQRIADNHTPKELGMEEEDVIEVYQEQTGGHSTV

[14] = target: T6, Small ubiquitin-related modifier 1; assay: inhibitors of SUMO1 partner interactions, dose response, biochemical, FRET (AID 624383); type: functional; conditions: read-out: IC50_Mean
[15] = AlphaScreen signal interference compounds, dose response, artefact control for ARNT-TACC3 interaction inhibitor project, biochemical, luminescence, cherry-pick (AID 651705); type: functional;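 further: AlphaScreen bead proximity signal that flags compounds interfering with the detection technology; potency reflects signal decrease which marks the compound as an assay artifact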
[16] = StAR promoter reporter inhibition counter-screen, dose response, counter-screen for LRH-1 inverse agonist project, cell-based, luminescence, luciferase reporter (AID 651969); type: functional
[17] = target: Nuclear receptor subfamily 5 group A member 2 (Homo sapiens, UniProt O00482); type: functional, cell-based;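 further: HEK293T cells transfected with LRH-1 and a StAR promoter luciferase reporter; potency for inhibitors that lower LRH-1 driven reporter light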
Nuclear receptor subfamily 5 group A member 2, sequence (O00482 whole entry): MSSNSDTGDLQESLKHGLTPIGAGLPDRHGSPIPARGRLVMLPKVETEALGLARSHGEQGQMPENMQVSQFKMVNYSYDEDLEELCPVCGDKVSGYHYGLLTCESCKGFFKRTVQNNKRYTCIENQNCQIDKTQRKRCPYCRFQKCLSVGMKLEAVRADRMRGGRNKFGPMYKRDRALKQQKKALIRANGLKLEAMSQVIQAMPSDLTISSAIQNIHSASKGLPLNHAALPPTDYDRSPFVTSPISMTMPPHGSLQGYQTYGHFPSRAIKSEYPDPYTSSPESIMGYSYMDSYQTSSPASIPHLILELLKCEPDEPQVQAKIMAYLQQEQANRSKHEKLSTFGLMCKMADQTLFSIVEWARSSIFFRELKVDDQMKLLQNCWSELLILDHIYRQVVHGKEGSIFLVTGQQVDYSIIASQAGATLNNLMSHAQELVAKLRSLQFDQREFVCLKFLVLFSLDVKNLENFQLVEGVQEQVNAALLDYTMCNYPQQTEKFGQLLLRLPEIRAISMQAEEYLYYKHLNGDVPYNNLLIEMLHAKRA

Steroidogenic factor 1 = Steroidogenic factor 1 (Homo sapiens, UniProt Q13285); assay: Counterscreen for inverse agonists of the liver receptor homolog-1 (LRH-1; NR5A2): Luminescence-based cell-based high throughput dose response assay to identify inverse agonists of the Steroidogenic Factor 1 Nuclear Receptor (SF1; NR5A1).; type: functional
Steroidogenic factor 1, sequence (Q13285 whole entry): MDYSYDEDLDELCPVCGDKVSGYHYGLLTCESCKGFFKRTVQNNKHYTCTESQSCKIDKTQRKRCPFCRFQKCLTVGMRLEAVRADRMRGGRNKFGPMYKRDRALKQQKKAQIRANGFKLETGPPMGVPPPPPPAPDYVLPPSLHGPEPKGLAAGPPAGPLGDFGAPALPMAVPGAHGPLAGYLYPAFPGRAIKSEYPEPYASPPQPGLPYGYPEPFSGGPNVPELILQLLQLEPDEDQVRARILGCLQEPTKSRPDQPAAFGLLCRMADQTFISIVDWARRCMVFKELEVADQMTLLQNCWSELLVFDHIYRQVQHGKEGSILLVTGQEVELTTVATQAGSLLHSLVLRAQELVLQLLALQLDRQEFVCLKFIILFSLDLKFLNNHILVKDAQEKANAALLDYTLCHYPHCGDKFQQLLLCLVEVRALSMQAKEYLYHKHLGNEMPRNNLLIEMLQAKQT

[18] = target: Cell division cycle 7-related protein kinase (Homo sapiens, UniProt O00311); type: functional;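 further: value obtained from a kinome-wide kinase panel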
Cell division cycle 7-related protein kinase, sequence (O00311 whole entry): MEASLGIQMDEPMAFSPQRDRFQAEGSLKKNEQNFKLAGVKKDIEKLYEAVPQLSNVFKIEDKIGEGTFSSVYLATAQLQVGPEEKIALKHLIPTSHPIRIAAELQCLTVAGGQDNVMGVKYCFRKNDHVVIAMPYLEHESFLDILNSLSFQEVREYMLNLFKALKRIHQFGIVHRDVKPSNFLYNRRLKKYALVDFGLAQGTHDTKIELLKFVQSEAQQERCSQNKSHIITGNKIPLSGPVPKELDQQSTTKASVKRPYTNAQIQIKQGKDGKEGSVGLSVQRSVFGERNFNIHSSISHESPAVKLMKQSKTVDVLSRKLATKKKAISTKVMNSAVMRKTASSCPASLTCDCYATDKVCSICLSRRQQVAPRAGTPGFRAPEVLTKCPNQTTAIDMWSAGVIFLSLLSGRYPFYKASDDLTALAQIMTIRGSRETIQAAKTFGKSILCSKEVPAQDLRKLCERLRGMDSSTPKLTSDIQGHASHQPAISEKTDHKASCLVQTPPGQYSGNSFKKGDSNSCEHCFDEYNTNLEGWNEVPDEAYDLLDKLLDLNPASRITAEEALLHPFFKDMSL

[19] = target: Serine/threonine-protein kinase pim-1 (Homo sapiens, UniProt P11309); type: functional
Serine/threonine-protein kinase pim-1, sequence (P11309 whole entry): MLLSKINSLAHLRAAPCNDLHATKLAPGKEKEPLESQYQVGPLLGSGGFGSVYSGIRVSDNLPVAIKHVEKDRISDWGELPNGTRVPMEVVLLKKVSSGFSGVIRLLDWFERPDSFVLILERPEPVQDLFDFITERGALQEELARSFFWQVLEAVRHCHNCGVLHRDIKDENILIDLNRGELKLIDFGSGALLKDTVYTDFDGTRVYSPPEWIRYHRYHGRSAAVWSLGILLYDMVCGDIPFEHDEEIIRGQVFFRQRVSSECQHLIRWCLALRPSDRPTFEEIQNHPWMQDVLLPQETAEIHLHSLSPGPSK

[20] = target: Glycogen synthase kinase-3 beta (Homo sapiens, UniProt P49841); type: functional;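 further: value comes from a broad kinome profiling panel, with GSK3B as the panel member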
[21] = target: cAMP-dependent protein kinase catalytic subunit alpha (Homo sapiens, UniProt P17612); type: functional
[22] = target: Dual specificity protein kinase CLK4 (Homo sapiens, UniProt Q9HAZ1); type: functional
Dual specificity protein kinase CLK4, sequence (Q9HAZ1 whole entry): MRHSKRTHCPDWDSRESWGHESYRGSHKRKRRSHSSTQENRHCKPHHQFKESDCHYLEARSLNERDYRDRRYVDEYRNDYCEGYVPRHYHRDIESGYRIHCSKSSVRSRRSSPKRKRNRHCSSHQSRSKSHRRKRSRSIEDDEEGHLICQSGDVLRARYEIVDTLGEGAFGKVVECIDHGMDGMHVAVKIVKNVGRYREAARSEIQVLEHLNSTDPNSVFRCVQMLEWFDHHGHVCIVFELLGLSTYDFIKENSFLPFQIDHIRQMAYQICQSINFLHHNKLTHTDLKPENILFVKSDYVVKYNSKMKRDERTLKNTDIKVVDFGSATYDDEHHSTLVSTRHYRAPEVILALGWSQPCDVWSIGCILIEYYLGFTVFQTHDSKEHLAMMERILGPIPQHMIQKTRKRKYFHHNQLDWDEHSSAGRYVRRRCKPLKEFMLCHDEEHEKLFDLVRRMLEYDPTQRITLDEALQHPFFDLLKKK

[23] = target: Homeodomain-interacting protein kinase 2 (Homo sapiens, UniProt Q9H2X6); type: functional;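 further: measured within a kinome-wide kinase profiling panel, HIPK2 being one panel member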
[24] = target: Interleukin-1 receptor-associated kinase 4 (Homo sapiens, UniProt Q9NWZ3); type: functional
Interleukin-1 receptor-associated kinase 4, sequence (Q9NWZ3 whole entry): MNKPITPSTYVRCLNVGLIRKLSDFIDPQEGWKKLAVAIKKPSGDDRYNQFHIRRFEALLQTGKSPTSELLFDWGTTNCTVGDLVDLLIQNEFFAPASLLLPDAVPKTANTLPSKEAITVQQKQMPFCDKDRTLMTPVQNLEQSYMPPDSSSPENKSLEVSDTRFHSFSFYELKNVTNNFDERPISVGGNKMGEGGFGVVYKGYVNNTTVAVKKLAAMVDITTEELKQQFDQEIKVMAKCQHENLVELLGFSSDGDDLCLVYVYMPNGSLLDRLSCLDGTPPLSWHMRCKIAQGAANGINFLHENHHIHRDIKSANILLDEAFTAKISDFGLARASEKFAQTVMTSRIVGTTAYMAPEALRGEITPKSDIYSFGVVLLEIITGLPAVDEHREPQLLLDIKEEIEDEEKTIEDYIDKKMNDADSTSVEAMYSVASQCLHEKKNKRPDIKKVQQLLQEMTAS

[25] = target: T7, DNA repair protein RAD52 homolog (Homo sapiens, UniProt P43351); type: functional, biochemical
T7 sequence (P43351 whole entry): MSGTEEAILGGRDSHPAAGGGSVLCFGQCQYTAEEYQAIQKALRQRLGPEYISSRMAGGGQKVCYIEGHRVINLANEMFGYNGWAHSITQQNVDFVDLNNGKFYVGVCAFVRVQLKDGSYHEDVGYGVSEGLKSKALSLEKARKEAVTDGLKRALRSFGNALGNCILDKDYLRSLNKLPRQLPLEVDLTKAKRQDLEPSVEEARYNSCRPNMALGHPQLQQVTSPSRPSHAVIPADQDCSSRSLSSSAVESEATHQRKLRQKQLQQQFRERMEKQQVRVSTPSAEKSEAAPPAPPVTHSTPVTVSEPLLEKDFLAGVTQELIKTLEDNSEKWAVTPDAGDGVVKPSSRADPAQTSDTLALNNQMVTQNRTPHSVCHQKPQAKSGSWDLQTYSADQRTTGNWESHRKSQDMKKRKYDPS

[26] = target: DNA repair and recombination protein RAD54-like (Homo sapiens, UniProt Q92698); assay: inhibitors of human RAD54 branch migration, confirmation, biochemical, fluorescence, cherry-picked samples, dose series (AID 651657); type: functional
DNA repair and recombination protein RAD54-like, sequence (Q92698 whole entry, the tested form may be a part): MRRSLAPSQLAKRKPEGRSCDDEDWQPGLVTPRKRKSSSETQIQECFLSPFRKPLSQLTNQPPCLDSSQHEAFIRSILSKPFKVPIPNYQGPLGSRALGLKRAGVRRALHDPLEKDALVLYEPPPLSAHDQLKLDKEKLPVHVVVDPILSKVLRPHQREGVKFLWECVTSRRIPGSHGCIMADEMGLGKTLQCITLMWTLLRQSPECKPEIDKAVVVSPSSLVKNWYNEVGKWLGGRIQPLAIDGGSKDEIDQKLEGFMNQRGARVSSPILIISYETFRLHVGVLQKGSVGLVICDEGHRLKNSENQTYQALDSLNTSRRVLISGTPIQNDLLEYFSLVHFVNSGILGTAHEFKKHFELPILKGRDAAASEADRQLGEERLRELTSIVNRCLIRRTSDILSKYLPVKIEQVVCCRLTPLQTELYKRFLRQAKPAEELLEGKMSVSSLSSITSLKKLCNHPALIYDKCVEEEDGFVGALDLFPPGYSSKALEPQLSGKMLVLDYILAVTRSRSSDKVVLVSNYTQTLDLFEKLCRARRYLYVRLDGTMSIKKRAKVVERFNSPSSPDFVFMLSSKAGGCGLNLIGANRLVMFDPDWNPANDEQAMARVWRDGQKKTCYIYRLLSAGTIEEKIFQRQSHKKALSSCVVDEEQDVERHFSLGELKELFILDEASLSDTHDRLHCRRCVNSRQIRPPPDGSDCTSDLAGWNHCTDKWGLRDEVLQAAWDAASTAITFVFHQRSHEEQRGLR

[27] = target: T8, Tyrosine-protein phosphatase non-receptor type 22 (Homo sapiens, UniProt Q9Y2R2); assay: LYP phosphatase inhibition for selectivity, dose response, selectivity assay for LMPTP inhibitor project, biochemical, fluorescence, LYP catalytic domain (AID 652006); type: functional; conditions: read-out: IC50_Mean
T8 sequence (Q9Y2R2 whole entry): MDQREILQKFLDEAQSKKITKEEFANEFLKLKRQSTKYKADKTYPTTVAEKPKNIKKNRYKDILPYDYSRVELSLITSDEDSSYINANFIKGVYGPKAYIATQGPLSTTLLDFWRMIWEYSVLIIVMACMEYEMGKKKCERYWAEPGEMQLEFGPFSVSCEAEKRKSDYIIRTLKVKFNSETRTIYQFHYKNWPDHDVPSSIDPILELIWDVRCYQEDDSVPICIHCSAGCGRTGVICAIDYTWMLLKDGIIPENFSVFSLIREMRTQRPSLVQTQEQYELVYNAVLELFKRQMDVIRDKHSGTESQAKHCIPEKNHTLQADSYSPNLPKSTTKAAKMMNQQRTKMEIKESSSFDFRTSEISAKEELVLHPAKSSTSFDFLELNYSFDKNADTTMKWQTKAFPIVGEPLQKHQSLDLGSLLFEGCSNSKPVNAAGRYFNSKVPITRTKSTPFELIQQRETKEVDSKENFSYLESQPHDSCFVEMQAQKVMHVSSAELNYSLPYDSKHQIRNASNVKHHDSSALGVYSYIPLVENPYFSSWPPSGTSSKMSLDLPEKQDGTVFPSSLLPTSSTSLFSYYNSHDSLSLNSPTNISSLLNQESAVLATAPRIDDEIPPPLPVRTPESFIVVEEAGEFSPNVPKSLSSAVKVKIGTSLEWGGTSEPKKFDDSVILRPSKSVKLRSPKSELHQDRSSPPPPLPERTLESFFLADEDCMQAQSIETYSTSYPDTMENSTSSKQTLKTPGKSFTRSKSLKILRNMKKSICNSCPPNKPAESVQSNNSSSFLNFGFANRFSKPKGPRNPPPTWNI

[28] = target: T9, Low molecular weight phosphotyrosine protein phosphatase (Homo sapiens, UniProt P24666); type: functional; conditions: read-out: IC50_Mean;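 further: Dose-response confirmation assay measuring inhibition of LMPTP enzyme activity by fluorescence intensity read-out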
T9 sequence (P24666 whole entry): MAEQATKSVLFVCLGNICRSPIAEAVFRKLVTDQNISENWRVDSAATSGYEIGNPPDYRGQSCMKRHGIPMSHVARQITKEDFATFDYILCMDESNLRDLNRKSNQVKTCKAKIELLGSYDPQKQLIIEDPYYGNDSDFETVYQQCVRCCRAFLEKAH

Induced myeloid leukemia cell differentiation protein Mcl-1, sequence (Q07820 whole entry): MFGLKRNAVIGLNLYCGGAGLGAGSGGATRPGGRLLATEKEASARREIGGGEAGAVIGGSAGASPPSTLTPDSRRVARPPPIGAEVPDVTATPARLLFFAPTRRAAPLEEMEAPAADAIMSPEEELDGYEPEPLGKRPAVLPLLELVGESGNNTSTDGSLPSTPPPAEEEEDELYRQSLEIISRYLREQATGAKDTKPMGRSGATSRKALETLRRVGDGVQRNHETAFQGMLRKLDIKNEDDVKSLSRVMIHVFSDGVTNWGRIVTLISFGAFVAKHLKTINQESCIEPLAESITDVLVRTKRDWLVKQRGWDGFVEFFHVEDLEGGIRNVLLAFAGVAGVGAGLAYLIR

IC50 [1]: 2.97 µM (active)
IC50 [2]: 15.9 µM (active)
IC50 [3]: 6.76 µM (active)
IC50 [4]: 5.78 µM (active)
IC50 [5]: 2.52 µM (active)
Compound: Cn1c(N)c(C(=O)COC(=O)c2cc(-c3ccco3)nc3ccccc23)c(=O)n(C)c1=O

Compound: Cc1ccc(C(=O)NC(=S)NNC(=O)CC#N)cc1
EC50 [6]: > 104 µM (inactive)
EC50 [7]: > 38 µM (not active)
EC50 [8]: > 150 µM (inconclusive)

IC50 [9]: 7.23 µM (active)
IC50 [10]: 9.12 µM (active)
Compound: Cc1ccc(NC(=O)c2ccccc2NS(=O)(=O)c2ccc(Cl)s2)cc1S(=O)(=O)N1CCOCC1

IC50 [11]: 7.01 µM (active)
IC50 [12]: 8.78 µM (active)
Compound: C=CCOc1c(Br)cc(/C=C2/N=C(S)N(C(C)=O)C2=O)cc1OC

Compound: O=C(COC(=O)c1nc(Cl)ccc1Cl)Nc1ccc2[nH]c(O)nc2c1
IC50 [13]: > 66.6 µM (inactive)
IC50 [14]: 20.8 µM (inactive)

Compound: CS(=O)(=O)c1cccc(-c2nnc(NC(=O)c3ccc(S(=O)(=O)N4CCCC4)cc3)o2)c1
AC50 [15]: 113 µM (active)

IC50 [9]: 4.22 µM (active)
IC50 [10]: 7.46 µM (active)
Compound: COCC(C)N1CCC(Oc2cccc(C(=O)NCCc3ccccc3)c2)CC1 (stereo unspecified)

Compound: Cc1cc(OCC(=O)NCc2cccnc2)c2c(C)c(C)c(=O)oc2c1
IC50 [16]: 35.9 µM (inactive)
IC50 [17]: 2.88 µM (active)
IC50 (Steroidogenic factor 1): 2.35 µM (active)

Ki [18]: 0.002 µM (active)
Ki [19]: 1 µM (active)
Ki [20]: 0.316 µM (active)
Ki [21]: 0.316 µM (active)
Ki [22]: 0.00501 µM (active)
Ki [23]: 0.126 µM (active)
Ki [24]: 2.51 µM (active)
Compound: CC(C)(O)CNc1cc(-c2c[nH]c3ncccc23)cc(Cl)n1

AC50 [25]: 4.86 µM (active)
AC50 [26]: 20.8 µM (active)
Compound: CN(C)CCCNc1c2c(nc3ccccc13)CCC2

IC50 [27]: 24.7 µM (inactive)
IC50 [28]: 13.2 µM (active)
Compound: COc1cccc2c1[C@@H]1CN(CCCCn3c(=O)[nH]c4c(sc5ncc(-c6ccccc6)nc54)c3=O)C[C@@H]1CO2 [FIDUXOSIN HYDROCHLORIDE]
